Five compounds from publication PMC4960534, “Ligand binding to an Allergenic Lipid Transfer Protein Enhances Conformational Flexibility resulting in an Increase in Susceptibility to Gastroduodenal Proteolysis” (Scientific Reports, 2016) can be followed below.

Where two headings read alike, the source gives them in different places.

For test [1], the target named is T1, peach LTP (Prunus persica, UniProt P81402, A9S/H76S).
T1 construct: Peach LTP was purified from the skin of peach fruits; from tissue; host or cells: skin of peach fruits
T1 sequence (P81402 whole entry A9S/H76S): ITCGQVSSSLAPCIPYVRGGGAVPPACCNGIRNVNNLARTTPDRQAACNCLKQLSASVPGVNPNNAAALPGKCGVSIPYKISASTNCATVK
In words: CPA displacement assay (competitive, CPA as tracer). It is filed as binding. The conditions noted are these: for ΔG Peach: ΔG = -RTln(Ki). As to the method: (§1) Ligand binding was assessed using a fluorescence assay based on cis-parinaric acid originally described by Cooper et al.[22]. Fluorescence intensity was measured at 25 °C with a LS55 Luminescence Spectrometer (Perkin Elmer, Cambridge, UK) using a […] slit width for both excitation (λ = 320 nm) and emission (λ = 420 nm) and the measurement taken for no longer than 1.5–2s. CPA (3 mM in ethanol) was titrated by 1 μL injections into 1 mL of LTP solutions (5 μM in 50 mM phosphate buffer pH 7.5) in a stepwise manner. Binding curves were fitted with GraphPad Prism using the rectangular hyperbolic function of Hill’s equation. For non-fluorescent ligands, a competitive assay was developed using CPA as a tracer ligand. CPA concentrations close to the calculated Kd of each LTP[49][50] (at either 1 or 0.5 μM CPA for peach LTP and 2 or 1 μM CPA for wheat LTP in 50 mM phosphate buffer pH 7.5 or pH 2.5, 150 mM NaCl, respectively) were used. After equilibrating for 2–3 min with gentle mixing, the competing non-fluorescent ligands (1 mM of palmitic acid, 16-OH palmitic acid, 12-OH stearic acid, linoleic acid or 1-palmitoyl–sn–glycerol–3–phosphatadyl choline (PC) ethanol) were titrated into the LTP solution in 1 μL aliquots. The resulting data were fitted using a sigmoidal curve-fitting logarithm in GraphPad Prism from which the concentration able to displace 50% of the CPA (IC50) was calculated. Ki values were calculated according to Cheng-Prusoff equation[51].

Test [2] concerns the target T2, wheat LTP (Triticum aestivum, UniProt P24296).
T2 construct: Intact protein (residues 1–90); from tissue; host or cells: wheat bran
T2 sequence (P24296 24-113): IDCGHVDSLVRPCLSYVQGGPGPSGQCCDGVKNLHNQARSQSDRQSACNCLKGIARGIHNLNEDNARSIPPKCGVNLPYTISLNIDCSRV
Described as above. The test is classed as binding. The conditions noted are these: for Ki: Cheng-Prusoff; for ΔG Wheat: ΔG = -RTln(Ki). As to the method: as §1

For test [3], the target named is T3, peach LTP (Prunus persica, UniProt P81402).
T3 construct: Peach LTP was purified from the skin of peach fruits; from tissue; host or cells: skin of peach fruits
T3 sequence (P81402 1-91): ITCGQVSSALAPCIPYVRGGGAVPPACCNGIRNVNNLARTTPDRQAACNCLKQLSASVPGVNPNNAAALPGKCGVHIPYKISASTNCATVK
The test is described as follows: CPA fluorescence titration, direct binding. As to the method:
as §1

Test [4] deals with T4, wheat LTP (Triticum aestivum, UniProt P24296).
T4 construct: Intact protein (residues 1–90); from tissue; host or cells: wheat bran
T4 sequence (P24296 24-90 limits assumed): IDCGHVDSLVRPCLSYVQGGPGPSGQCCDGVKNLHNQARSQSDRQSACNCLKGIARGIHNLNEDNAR
In words: CPA fluorescence titration, direct binding. As for the experimental part:
as §1

Setting [5] is: 50 mM phosphate, pH 7.5, Cheng-Prusoff, read-out: Ki Peach.
Setting [6] is: 50 mM phosphate, pH 7.5, displacement of 1 μM CPA, read-out: IC50 Peach.
The mark [7] stands for this setting: 150 mM NaCl, pH 2.5, Cheng-Prusoff, read-out: Ki Peach.
Where [8] appears, read: 150 mM NaCl, pH 2.5, displacement of 0.5 μM CPA, read-out: IC50 Peach.
The mark [9] stands for this setting: 50 mM phosphate, pH 7.5, displacement of 2 μM CPA.
Where [10] appears, read: 150 mM NaCl, pH 2.5, displacement of 1 μM CPA.

Regarding “1-palmitoyl–sn–glycerol–3–phosphatadyl choline [Phosphatidyl choline]”, the Ki on peach LTP [1] (setting [5]) came out at 1100 ± 20 nM; on peach LTP [1] (setting [7]), 1000 ± 100 nM; at wheat LTP [2] (50 mM phosphate, pH 7.5) it was 4600 ± 100 nM; on wheat LTP [2] (150 mM NaCl, pH 2.5), 2800 ± 100 nM. Moreover, the IC50 at peach LTP [1] (setting [6]) came to 2200 ± 30 nM; on peach LTP [1] (setting [8]) it was 1800 ± 100 nM; on wheat LTP [2] (setting [9]) it was 6700 ± 100 nM; at wheat LTP [2] (setting [10]) it was 5300 ± 100 nM. For the same compound, the “ΔG Peach” value at peach LTP [1] (50 mM phosphate, pH 7.5) is 8.13 kcal/mol; on peach LTP [1] (150 mM NaCl, pH 2.5), 8.17 kcal/mol. In addition, the “ΔG Wheat” value on wheat LTP [2] (50 mM phosphate, pH 7.5) was found to be 7.27 kcal/mol; at wheat LTP [2] (150 mM NaCl, pH 2.5), 7.55 kcal/mol.
On to `CC\C=C/C=C/C=C/C=C\CCCCCCCC(=O)O` [CPA, cis-parinaric acid], for which the Kd on peach LTP [3] (50 mM phosphate, pH 7.5) came to 1000 ± 20 nM; on peach LTP [3] (150 mM NaCl, pH 2.5), 600 ± 100 nM; on wheat LTP [4] (50 mM phosphate, pH 7.5), 4500 ± 200 nM; on wheat LTP [4] (150 mM NaCl, pH 2.5), 1200 ± 100 nM.
`CCCCC/C=C\C/C=C\CCCCCCCC(=O)O` [Linoleic acid, linoleic acid]: on peach LTP [1], the 50% inhibitory concentration (IC50) was 1600 ± 100 nM and the inhibition constant Ki amounted to 800 ± 40 nM. Besides, at peach LTP [1] (50 mM phosphate, pH 7.5), the “ΔG Peach” value came to 8.29 kcal/mol. In addition, at wheat LTP [2] (50 mM phosphate, pH 7.5), the inhibition constant Ki amounted to 5300 ± 20 nM and the “ΔG Wheat” value turned out to be 7.19 kcal/mol. For the same compound, the IC50 on wheat LTP [2] (setting [9]) stood at 7600 ± 30 nM.
On to `CCCCCCCCCCCCCCCC(=O)O` [Palmitic acid, palmitic acid], for which the IC50 on peach LTP [1] came out at 1400 ± 100 nM; on wheat LTP [2] (setting [9]), 5200 ± 100 nM. Besides, the inhibition constant Ki was 700 ± 30 nM on peach LTP [1] and 3600 ± 100 nM on wheat LTP [2] (50 mM phosphate, pH 7.5). Further, at peach LTP [1] (50 mM phosphate, pH 7.5), the “ΔG Peach” value was 8.39 kcal/mol. The “ΔG Wheat” value at wheat LTP [2] (50 mM phosphate, pH 7.5) was determined as 7.41 kcal/mol.
As for `CCCCCCCCCCCCCCCC(=O)OC[C@@H](O)COP(=O)([O-])OCC[N+](C)(C)C` [Phosphatidyl choline (vesicular), 1-palmitoyl–sn–glycerol–3–phosphatadyl choline], the Ki on peach LTP [1] (setting [5]) came out at 700 ± 40 nM; at peach LTP [1] (setting [7]), 800 ± 100 nM; on wheat LTP [2] (50 mM phosphate, pH 7.5) it was 3900 ± 100 nM; at wheat LTP [2] (150 mM NaCl, pH 2.5), 3600 ± 100 nM. Also, the half-maximal inhibitory concentration (IC50) worked out at 1500 ± 100 nM on peach LTP [1] (setting [6]), 1500 ± 100 nM on peach LTP [1] (setting [8]), 5600 ± 100 nM on wheat LTP [2] (setting [9]) and 6800 ± 200 nM on wheat LTP [2] (setting [10]). For the same compound, the “ΔG Peach” value at peach LTP [1] (50 mM phosphate, pH 7.5) was 8.35 kcal/mol; at peach LTP [1] (150 mM NaCl, pH 2.5), 8.29 kcal/mol. Moreover, the “ΔG Wheat” value came out at 7.37 kcal/mol on wheat LTP [2] (50 mM phosphate, pH 7.5) and 7.41 kcal/mol on wheat LTP [2] (150 mM NaCl, pH 2.5).
